Laboratory results from ChEMBL document CHEMBL1201862, “PubChem BioAssay data set” (2004).
The source made the active and inactive calls.

Assays:
[1] = viability of PTEN-deleted HCT116 cells – cell-based, HCT116 PTEN knockout, dose response (AID 1047); assay type: functional;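 further: HCT116 colon tumor cells with PTEN knocked out; cells exposed to compound for 60 hours before readout; potency for loss of cell viability measured by luminescence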
[2] = viability of HCT116 lacking mutant beta-catenin – cell-based, human colon tumor, dose response (AID 1045); assay type: functional;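 further: HCT116 colon tumor cells with beta catenin knocked out; cells exposed to compound for 60 hours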
[3] = Luminescence Cell-Based Dose Retest to Confirm Inhibitors of Cancer Stem Cells. [Related pubchem assays (depositor defined):AID2717, AID2721]; assay type: functional; conditions: Homo sapiens
[4] = target: X-box-binding protein 1 (Homo sapiens, UniProt P17861); assay type: functional, Cricetulus griseus;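 further: confirmatory dose-response counter-screen serving a CHOP assay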
Chain of X-box-binding protein 1 (P17861 whole entry): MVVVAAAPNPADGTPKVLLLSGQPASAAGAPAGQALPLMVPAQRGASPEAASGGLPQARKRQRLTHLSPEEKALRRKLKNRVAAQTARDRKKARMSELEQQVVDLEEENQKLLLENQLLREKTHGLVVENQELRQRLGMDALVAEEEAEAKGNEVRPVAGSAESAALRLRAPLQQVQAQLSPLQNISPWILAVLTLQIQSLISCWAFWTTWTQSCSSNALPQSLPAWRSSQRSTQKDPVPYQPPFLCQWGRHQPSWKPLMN

[5] = target: T1, Coagulation factor XII (Homo sapiens, UniProt P00748); test: activated coagulation factor XII inhibitor potency, concentration-effect curve, cell-free (AID 716); assay type: functional
T1 sequence (P00748 whole entry): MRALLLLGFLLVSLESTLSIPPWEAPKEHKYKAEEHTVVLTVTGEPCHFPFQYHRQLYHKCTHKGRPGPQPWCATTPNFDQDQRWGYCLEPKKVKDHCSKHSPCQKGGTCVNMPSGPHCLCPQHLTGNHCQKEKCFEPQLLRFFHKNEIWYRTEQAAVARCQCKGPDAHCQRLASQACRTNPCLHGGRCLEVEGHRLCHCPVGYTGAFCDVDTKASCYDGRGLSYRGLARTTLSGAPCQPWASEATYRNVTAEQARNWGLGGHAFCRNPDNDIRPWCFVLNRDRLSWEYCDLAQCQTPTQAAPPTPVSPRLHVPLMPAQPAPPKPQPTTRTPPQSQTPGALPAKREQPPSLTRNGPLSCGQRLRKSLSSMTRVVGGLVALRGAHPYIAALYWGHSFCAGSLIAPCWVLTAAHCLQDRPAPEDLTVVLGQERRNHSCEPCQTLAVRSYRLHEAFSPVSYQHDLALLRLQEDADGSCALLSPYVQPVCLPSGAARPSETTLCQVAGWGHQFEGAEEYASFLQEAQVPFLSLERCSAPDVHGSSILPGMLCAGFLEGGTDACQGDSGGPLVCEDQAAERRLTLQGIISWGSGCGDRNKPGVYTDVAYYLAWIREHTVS

[6] = target: Intestinal-type alkaline phosphatase (Homo sapiens, UniProt P09923); test: human intestinal alkaline phosphatase activators, dose response, biochemical, luminescence, uHTS hits (AID 463120); assay type: functional
Chain of Intestinal-type alkaline phosphatase (P09923 whole entry): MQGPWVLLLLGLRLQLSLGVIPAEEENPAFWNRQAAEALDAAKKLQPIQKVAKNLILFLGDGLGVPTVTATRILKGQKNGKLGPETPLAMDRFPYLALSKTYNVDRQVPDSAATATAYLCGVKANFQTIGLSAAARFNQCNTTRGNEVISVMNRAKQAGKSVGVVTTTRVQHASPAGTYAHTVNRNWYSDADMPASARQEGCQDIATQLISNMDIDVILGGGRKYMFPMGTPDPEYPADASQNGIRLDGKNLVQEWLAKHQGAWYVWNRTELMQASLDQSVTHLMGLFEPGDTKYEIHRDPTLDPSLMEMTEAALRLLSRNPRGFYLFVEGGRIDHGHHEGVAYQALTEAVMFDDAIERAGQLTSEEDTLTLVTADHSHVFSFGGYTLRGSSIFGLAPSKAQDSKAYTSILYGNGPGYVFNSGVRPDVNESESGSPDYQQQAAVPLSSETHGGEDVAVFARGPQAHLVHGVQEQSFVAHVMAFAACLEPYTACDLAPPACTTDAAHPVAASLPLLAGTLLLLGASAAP

[7] = target: CAAX prenyl protease 2 (Saccharomyces cerevisiae S288c, UniProt Q03530); assay type: biochemical
Chain of CAAX prenyl protease 2 (Q03530 whole entry, the tested form may be a part): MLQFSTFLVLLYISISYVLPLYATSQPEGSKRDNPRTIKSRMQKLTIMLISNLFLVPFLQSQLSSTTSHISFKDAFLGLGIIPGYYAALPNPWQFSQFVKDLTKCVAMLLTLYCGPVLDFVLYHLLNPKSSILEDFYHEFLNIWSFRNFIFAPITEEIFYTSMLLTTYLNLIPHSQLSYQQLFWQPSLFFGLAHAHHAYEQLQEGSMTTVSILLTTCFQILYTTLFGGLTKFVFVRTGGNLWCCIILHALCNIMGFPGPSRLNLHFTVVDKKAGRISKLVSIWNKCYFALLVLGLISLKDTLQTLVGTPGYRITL

[8] = target: T2, Nucleotide-binding oligomerization domain-containing protein 1 (Homo sapiens, UniProt Q9Y239); test: blockers of NOD1 pathway activity – revised, SAR follow-up (AID 2333); assay type: functional
T2 sequence (Q9Y239 whole entry): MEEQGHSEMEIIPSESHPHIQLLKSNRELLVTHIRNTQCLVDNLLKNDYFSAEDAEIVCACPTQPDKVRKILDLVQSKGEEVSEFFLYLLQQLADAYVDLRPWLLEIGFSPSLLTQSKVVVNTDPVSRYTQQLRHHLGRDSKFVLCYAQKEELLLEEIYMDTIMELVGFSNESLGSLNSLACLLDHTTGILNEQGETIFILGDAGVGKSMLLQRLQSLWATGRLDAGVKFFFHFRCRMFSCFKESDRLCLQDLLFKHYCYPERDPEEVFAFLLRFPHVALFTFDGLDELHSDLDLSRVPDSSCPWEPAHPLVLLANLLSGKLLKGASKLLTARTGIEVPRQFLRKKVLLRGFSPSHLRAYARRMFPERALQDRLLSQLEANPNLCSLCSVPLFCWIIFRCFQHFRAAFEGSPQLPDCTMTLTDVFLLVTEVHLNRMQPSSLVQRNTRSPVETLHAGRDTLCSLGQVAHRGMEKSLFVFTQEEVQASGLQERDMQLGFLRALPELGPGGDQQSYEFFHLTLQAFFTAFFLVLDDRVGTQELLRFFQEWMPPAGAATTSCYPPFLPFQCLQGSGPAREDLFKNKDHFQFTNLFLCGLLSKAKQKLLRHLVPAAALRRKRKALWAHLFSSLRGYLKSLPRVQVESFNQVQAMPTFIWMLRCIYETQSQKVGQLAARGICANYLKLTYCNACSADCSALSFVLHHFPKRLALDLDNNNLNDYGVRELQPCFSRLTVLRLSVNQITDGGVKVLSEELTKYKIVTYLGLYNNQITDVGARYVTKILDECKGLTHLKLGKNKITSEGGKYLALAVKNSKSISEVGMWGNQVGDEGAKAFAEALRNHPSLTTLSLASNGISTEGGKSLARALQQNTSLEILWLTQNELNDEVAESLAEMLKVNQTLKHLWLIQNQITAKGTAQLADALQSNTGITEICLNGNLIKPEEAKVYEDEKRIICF

[9] = target: Tumor necrosis factor (Homo sapiens, UniProt P01375); test: analog potency on TNFa NF-kB signaling – cell-based, revised, SAR follow-up (AID 2337); assay type: functional
Chain of Tumor necrosis factor (P01375 whole entry, the tested form may be a part): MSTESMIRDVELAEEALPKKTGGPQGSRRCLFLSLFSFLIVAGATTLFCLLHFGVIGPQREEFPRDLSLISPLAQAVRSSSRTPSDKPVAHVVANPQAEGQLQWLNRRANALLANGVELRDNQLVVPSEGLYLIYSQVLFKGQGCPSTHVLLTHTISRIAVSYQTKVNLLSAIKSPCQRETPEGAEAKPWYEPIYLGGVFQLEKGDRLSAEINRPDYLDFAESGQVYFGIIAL

[10] = target: Nucleotide-binding oligomerization domain-containing protein 2 (Homo sapiens, UniProt Q9HC29); test: PubChem AID 2334; assay type: functional
Chain of Nucleotide-binding oligomerization domain-containing protein 2 (Q9HC29 whole entry, the tested form may be a part): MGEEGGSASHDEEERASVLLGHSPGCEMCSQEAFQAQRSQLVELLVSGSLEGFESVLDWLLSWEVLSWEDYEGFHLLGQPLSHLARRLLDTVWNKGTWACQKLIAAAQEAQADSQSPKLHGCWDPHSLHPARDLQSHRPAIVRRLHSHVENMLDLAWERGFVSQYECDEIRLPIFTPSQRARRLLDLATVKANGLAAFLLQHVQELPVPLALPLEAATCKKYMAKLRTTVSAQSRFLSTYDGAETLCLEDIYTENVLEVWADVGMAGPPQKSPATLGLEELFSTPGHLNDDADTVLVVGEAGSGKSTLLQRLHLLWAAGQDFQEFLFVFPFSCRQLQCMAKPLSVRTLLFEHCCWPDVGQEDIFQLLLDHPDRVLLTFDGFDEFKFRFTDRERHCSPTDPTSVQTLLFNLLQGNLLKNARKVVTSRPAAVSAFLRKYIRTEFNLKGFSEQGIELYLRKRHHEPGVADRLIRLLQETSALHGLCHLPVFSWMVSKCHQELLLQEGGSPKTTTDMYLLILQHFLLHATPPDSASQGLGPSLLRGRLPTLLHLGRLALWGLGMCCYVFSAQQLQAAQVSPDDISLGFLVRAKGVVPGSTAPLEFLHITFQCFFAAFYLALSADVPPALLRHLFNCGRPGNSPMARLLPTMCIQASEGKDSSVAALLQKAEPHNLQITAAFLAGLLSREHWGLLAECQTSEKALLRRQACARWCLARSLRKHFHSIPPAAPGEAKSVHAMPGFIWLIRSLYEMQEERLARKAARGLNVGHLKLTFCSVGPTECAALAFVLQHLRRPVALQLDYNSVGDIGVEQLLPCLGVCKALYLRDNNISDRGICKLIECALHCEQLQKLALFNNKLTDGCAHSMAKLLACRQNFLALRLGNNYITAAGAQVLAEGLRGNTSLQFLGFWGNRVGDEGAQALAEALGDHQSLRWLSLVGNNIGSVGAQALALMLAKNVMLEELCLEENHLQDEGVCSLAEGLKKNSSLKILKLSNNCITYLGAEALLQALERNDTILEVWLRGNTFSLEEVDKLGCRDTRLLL

[11] = viability of uninfected HEp-2 cells – cell-based, HTS, cytotoxicity control for RSV inhibitor project, dose response (AID 2410); assay type: functional; conditions: human respiratory syncytial virus
[12] = cells
[13] = system: HEK293; test: cells; conditions: Homo sapiens;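 further: cells exposed to compound for 14 hours overnight before viability readout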
[14] = target: Alkaline phosphatase, placental type (Homo sapiens, UniProt P05187); test: human placental alkaline phosphatase inhibition – biochemical, luminescence, confirmation (AID 1512); assay type: functional
Chain of Alkaline phosphatase, placental type (P05187 whole entry): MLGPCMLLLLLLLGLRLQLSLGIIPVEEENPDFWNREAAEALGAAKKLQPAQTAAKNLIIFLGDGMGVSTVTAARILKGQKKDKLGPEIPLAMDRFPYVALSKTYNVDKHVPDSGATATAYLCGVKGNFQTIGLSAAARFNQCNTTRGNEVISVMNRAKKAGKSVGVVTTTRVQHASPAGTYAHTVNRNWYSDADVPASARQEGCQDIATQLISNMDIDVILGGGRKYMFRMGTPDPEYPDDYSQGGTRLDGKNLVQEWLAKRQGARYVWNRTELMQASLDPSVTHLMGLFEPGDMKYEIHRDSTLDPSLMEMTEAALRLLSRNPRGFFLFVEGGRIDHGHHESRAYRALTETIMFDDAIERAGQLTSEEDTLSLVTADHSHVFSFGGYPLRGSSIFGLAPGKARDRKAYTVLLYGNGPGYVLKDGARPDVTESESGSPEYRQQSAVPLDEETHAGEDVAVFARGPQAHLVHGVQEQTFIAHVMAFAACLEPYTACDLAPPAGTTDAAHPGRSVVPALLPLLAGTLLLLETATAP

[15] = target: T3, Alkaline phosphatase, tissue-nonspecific isozyme (Homo sapiens, UniProt P05186); test: potency against alkaline phosphatase TNAP – biochemical, luminescent, dose response, SAR follow-up (AID 1056)
T3 sequence (P05186 whole entry): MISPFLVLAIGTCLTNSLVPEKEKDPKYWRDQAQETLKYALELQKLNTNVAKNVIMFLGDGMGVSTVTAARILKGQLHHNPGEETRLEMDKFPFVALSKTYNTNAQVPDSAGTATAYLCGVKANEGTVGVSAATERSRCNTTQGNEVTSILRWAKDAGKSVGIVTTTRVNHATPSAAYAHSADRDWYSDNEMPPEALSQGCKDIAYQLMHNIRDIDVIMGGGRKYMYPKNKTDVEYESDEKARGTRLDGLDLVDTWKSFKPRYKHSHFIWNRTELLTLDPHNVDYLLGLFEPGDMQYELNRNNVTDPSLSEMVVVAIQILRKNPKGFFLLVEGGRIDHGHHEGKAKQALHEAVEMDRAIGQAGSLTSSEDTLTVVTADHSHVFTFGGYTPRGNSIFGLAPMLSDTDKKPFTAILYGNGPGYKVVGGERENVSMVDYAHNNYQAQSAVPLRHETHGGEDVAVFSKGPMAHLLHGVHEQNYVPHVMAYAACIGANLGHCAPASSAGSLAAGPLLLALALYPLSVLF

[16] = target: Phosphoethanolamine/phosphocholine phosphatase (Homo sapiens, UniProt Q8TCT1); test: SAR assay for compounds that inhibit PHOSPHO1. [Related pubchem assays (depositor defined):AID1545, AID1565, AID1574]
Chain of Phosphoethanolamine/phosphocholine phosphatase (Q8TCT1 whole entry): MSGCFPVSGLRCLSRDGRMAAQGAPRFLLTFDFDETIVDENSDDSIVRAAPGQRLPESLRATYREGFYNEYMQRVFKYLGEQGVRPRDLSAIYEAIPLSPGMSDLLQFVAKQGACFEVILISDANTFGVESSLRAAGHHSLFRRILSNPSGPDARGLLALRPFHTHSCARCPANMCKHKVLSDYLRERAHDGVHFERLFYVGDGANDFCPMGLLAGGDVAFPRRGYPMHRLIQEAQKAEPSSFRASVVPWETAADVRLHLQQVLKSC

[17] = target: T4, Mannose-6-phosphate isomerase (Homo sapiens, UniProt P34949); test: phosphomannose isomerase inhibition – biochemical, fluorescence intensity, confirmation (AID 1535)
T4 sequence (P34949 whole entry): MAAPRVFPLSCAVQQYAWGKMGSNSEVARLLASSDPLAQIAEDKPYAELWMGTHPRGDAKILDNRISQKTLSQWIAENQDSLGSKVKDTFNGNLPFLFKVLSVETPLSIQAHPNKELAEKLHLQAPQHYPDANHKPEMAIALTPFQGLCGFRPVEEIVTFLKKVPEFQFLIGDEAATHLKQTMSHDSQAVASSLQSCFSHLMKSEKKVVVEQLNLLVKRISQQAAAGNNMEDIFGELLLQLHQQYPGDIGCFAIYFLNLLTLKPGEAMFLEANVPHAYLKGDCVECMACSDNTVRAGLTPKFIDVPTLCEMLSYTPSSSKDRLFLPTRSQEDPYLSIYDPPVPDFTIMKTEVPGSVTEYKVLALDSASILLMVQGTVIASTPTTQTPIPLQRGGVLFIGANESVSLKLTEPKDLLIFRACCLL

[18] = target: T5, Phosphomannomutase 2 (Homo sapiens, UniProt O15305); test: Counter screen SAR assay for PMM2 inhibitors via a fluorescence intensity assay. [Related pubchem assays (depositor defined):AID1545, AID1574]
T5 sequence (O15305 whole entry): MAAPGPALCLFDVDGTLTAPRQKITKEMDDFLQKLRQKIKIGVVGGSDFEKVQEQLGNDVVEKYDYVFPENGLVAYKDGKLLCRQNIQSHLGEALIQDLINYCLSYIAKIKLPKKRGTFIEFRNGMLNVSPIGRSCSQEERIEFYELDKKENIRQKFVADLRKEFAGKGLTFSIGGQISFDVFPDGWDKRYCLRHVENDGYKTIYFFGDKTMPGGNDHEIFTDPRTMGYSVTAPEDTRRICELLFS

With Cc1ccc(NC(S)=NC(NC(=O)Cc2cccc3ccccc23)C(Cl)(Cl)Cl)cc1 (configuration not stated) the EC50 [1] was 13.1 µM (active), the EC50 [2] was 18.3 µM (active) and the AC50 [3] was 2.18 µM (active). The “Absolute IC50 (XBP1)” value [4] was 10 µM.

In the case of COc1ccc2cc(CN(CCO)C(=O)c3ccccc3F)c(=O)[nH]c2c1, the IC50 [5] is reported as > 50 µM (inactive).

With CCCSc1nnc(-c2c[nH]c3ccccc23)n1C the IC50 [5] was > 50 µM (inactive).

With CCOc1ccc(CC(=O)NNC(=S)NCCc2ccccc2)cc1 the EC50 [6] was 13.1 µM (active).

For CN(C)CCNC(=O)c1cccn(Cc2cc(C(F)(F)F)cc(C(F)(F)F)c2)c1=O, the AC50 [7] was > 100 µM (inactive).

In the case of O=C(CCc1ccccc1)Nc1sc2c(c1C(=O)O)CCCC2, the IC50 [8] is reported as > 20 µM (inactive), the IC50 [9] is reported as > 20 µM (inactive) and the IC50 [10] is reported as > 20 µM (inactive). The CC50 [11] was 42.7 µM (active), the AC50 [3] was 28.3 µM (active) and the IC50 [12] was 39.6 µM (active). For the same compound, the IC50 [13] was > 20 µM (inactive).

With O=C(CN1CCCc2ccccc21)c1ccc(O)c(O)c1 the IC50 [14] was 4.87 µM (active) and the IC50 [15] was 39.3 µM (active).

In the case of Cn1nc(-c2ccc(Cl)cc2)cc1C(=O)NC1CCCc2c1cnn2-c1ccccc1F (configuration not stated), the IC50 [8] is reported as 1.92 µM (active), the IC50 [9] is reported as 2.72 µM (active) and the IC50 [10] is reported as 1.72 µM (active). The IC50 [13] was > 20 µM (inactive).

In the case of O=c1c2c([N+](=O)[O-])cc([N+](=O)[O-])cc2sn1-c1ccc(F)cc1, the IC50 [16] is reported as 100 nM (active), the IC50 [17] is reported as 709 nM (active) and the IC50 [18] is reported as 2.46 µM (active).

In the case of O=c1c2c([N+](=O)[O-])cc([N+](=O)[O-])cc2sn1-c1ccccc1F, the IC50 [16] is reported as 23.3 nM (active), the IC50 [17] is reported as 1450 nM (active) and the IC50 [18] is reported as 4.22 µM (active).
